# Data taken from patent publication US12029751B2, “Therapeutic agent for nervous system disease” (OSAKA UNIVERSITY, priority 2017, dated 2024).
# Legend:
# [1] = tested on: cerebral cortical neurons; assay: LDH assay, necrosis inhibiting effect under oxygen-glucose deprivation (OGD) stress; assay type: cell-based, rat; conditions: 10 μM methylcobalamin 30 minutes before OGD stress (3 hours), measured after 24 hours
# Text: Cerebral cortical neurons were collected and cultured by a conventional method. Cerebral cortex was dissected from a fetus of a Sprague-Dawley (SD) rat (18th day of pregnancy) and recovered in ice-cooled Dulbecco's Modified Eagle Medium (DMEM) containing 10% fetal bovine serum (FBS) and 1% penicillin/streptomycin. The pia mater and blood vessels were removed, and the remaining cerebral cortex was transferred to DMEM (containing 1% penicillin/streptomycin and no FBS) and cut into small pieces having a size of 1 mm by surgical scissors. Papain (final concentration, 2 mg/ml) was added to the cell mixture, and the mixture was allowed to react at 37° C. for 30 minutes. DNase I (70 U/ml) was added to the reaction mixture and reaction was carried out for 30 seconds. Then, DMEM containing 10% FBS and 1% penicillin/streptomycin was added to terminate the reaction. […]
# To the cerebral cortical neurons (Example 1-1) cultured on a PLL-coated 6-well chamber slide, 10 μM methylcobalamin was added at 30 minutes before exposure to oxygen-glucose deprivation (OGD) stress. […] After 24 hours, the supernatant was collected, and LDH activity was measured using Cytotoxicity Detection Kit^PLUS (SIGMA). LDH activities of the control group and the methylcobalamin addition group were calculated as proportions (%) with respect to the LDH activity of the high control.
# [2] = tested on: Mouse macrophage cell line J774A.1; assay: Western blot of M1 markers (IL-1β, iNOS) and M2 markers (Arg1, CD206) in macrophage cell line; assay type: cell-based; conditions: for Arg1 protein / GAPDH protein / CD206 protein / GAPDH protein: 72 hours; for IL-1β protein / GAPDH protein / iNOS protein / GAPDH protein: 24 hours
# Method: (§1) Mouse macrophage cell line J774A.1 (JCRB9108) was purchased from JCRB Cell Bank (Laboratory of Cell Cultures), Osaka, Japan. Cells were cultured in DMEM containing 10% FBS and 1% penicillin/streptomycin.
# The J774A.1 cells (Example 5-1) were seeded on a dish having a diameter of 6 cm. After 4 days, proteins were collected using a cell lysis buffer containing a cocktail of protease inhibitors. The protein concentration was measured by BCA assay. Then, 50 μg of each sample was subjected to SDS-PAGE, and the electrophoresed proteins were transferred to a polyvinylidene difluoride membrane. The membrane was blocked with a blocking buffer for 1 hour, and then the proteins were allowed to react with primary antibodies at 4° C. overnight. The proteins were further allowed to react with a secondary antibody at room temperature for 1 hour and detected using ECL Western Blotting Detection System. To detect the M1 markers iNOS and IL-1β, lipopolysaccharide (LPS) (100 ng/ml) and methylcobalamin were added at 24 hours before collecting the proteins. To detect the M2 markers Arg1 and CD206, IL-4 (20 ng/ml) and methylcobalamin were added at 72 hours before collecting the proteins.
# The primary antibodies used were a rabbit anti-IL-1β polyclonal antibody (Santa Cruz), a rabbit anti-iNOS monoclonal antibody (Abeam), a rabbit anti-Arg1 polyclonal antibody (Santa Cruz), and a rabbit anti-CD206 monoclonal antibody (Abeam). The secondary antibody used was anti-rabbit IgG, horseradish peroxidase-linked whole antibody from donkey (GE Healthcare Life Sciences).
# [3] = tested on: Mouse macrophage cell line J774A.1; assay: Immunohistological evaluation of iNOS-positive (M1) and Arg1-positive (M2) macrophages; assay type: cell-based; conditions: for percentage of M2 macrophages (percentage of Arg1-positive cells): 72 hours; for percentage of M1 macrophages (percentage of iNOS-positive cells): 24 hours
# Method: as §1
# The J774A.1 cells (Example 5-1) were seeded on a dish having a diameter of 6 cm. After 4 days, cells were fixed with 4% PFA for 20 minutes. Blocking was performed for 30 minutes, and the cells were allowed to react with primary antibodies at 4° C. overnight. The cells were further allowed to react with a secondary antibody at room temperature for 1 hour so that the nuclei were labeled with DAPI. To detect the M1 marker iNOS, LPS (100 ng/ml) and methylcobalamin were added at 24 hours before fixing the cells. To detect the M2 marker Arg1, IL-4 (20 ng/ml) and methylcobalamin were added at 72 hours before fixing the cells.
# The primary antibodies used were a rabbit anti-iNOS monoclonal antibody (Abeam) and a rabbit anti-Arg1 polyclonal antibody (Santa Cruz). The secondary antibody used was an Alexa 488-labeled goat anti-rabbit IgG antibody (Life Technologies) or an Alexa 568-labeled goat anti-rabbit IgG antibody (Life Technologies).
smiles,measurement,setting,value
"C/C1=C2/[N-][C@H]([C@H](CC(N)=O)[C@@]2(C)CCC(=O)NC[C@@H](C)OP(=O)([O-])O[C@H]2[C@@H](O)[C@@H](n3cnc4cc(C)c(C)cc43)O[C@@H]2CO)[C@]2(C)N=C(/C(C)=C3N=C(/C=C4N=C1[C@@H](CCC(N)=O)C\4(C)C)[C@@H](CCC(N)=O)[C@]\3(C)CC(N)=O)[C@@H](CCC(N)=O)[C@]2(C)CC(N)=O.[CH3-].[Co+3] [MeCbl, methylcobalamin]",LDH activity as proportion with respect to the high control,[1],1.3%
same,LDH activity as proportion with respect to the high control,[1]; listed as methylcobalamin,significantly decreased
same,Arg1 protein / GAPDH protein,[2]; IL-4 20 ng/ml + MeCbl 1 nM,1.42
same,CD206 protein / GAPDH protein,[2]; IL-4 20 ng/ml + MeCbl 1 nM,1.28
same,Arg1 protein / GAPDH protein,[2]; IL-4 20 ng/ml + MeCbl 10 nM,1.60
same,CD206 protein / GAPDH protein,[2]; IL-4 20 ng/ml + MeCbl 10 nM,1.49
same,Arg1 protein / GAPDH protein,[2]; IL-4 20 ng/ml + MeCbl 100 nM,1.93
same,CD206 protein / GAPDH protein,[2]; IL-4 20 ng/ml + MeCbl 100 nM,1.53
same,Arg1 protein / GAPDH protein,"[2]; IL-4 20 ng/ml + MeCbl 100 nM, listed as methylcobalamin",significantly increased
same,Arg1 protein / GAPDH protein,[2]; IL-4 20 ng/ml + MeCbl 1 μM,1.65
same,CD206 protein / GAPDH protein,[2]; IL-4 20 ng/ml + MeCbl 1 μM,1.58
same,Arg1 protein / GAPDH protein,"[2]; IL-4 20 ng/ml + MeCbl 1 μM, listed as methylcobalamin",significantly increased
same,Arg1 protein / GAPDH protein,[2]; IL-4 20 ng/ml + MeCbl 10 μM,1.26
same,CD206 protein / GAPDH protein,[2]; IL-4 20 ng/ml + MeCbl 10 μM,1.08
same,Arg1 protein / GAPDH protein,[2]; IL-4 20 ng/ml + MeCbl 100 μM,0.92
same,CD206 protein / GAPDH protein,[2]; IL-4 20 ng/ml + MeCbl 100 μM,1.12
same,Arg1 protein / GAPDH protein,[2]; IL-4 20 ng/ml + MeCbl 1 mM,0.54
same,CD206 protein / GAPDH protein,[2]; IL-4 20 ng/ml + MeCbl 1 mM,0.78
same,methylcobalamin concentration at peaks of the CD206 levels,"[2]; IL-4 + methylcobalamin, Western blot",100 to 1000 nM
same,IL-1β protein / GAPDH protein,[2]; LPS 100 ng/ml + MeCbl 1 nM,0.91
same,iNOS protein / GAPDH protein,[2]; LPS 100 ng/ml + MeCbl 1 nM,0.87
same,IL-1β protein / GAPDH protein,[2]; LPS 100 ng/ml + MeCbl 10 nM,0.68
same,iNOS protein / GAPDH protein,[2]; LPS 100 ng/ml + MeCbl 10 nM,0.56
same,IL-1β protein / GAPDH protein,[2]; LPS 100 ng/ml + MeCbl 100 nM,0.46
same,iNOS protein / GAPDH protein,[2]; LPS 100 ng/ml + MeCbl 100 nM,0.15
same,IL-1β protein / GAPDH protein,"[2]; LPS 100 ng/ml + MeCbl 100 nM, listed as methylcobalamin",significantly decreased
same,IL-1β protein / GAPDH protein,[2]; LPS 100 ng/ml + MeCbl 1 μM,0.46
same,iNOS protein / GAPDH protein,[2]; LPS 100 ng/ml + MeCbl 1 μM,0.27
same,IL-1β protein / GAPDH protein,[2]; LPS 100 ng/ml + MeCbl 10 μM,0.60
same,iNOS protein / GAPDH protein,[2]; LPS 100 ng/ml + MeCbl 10 μM,0.33
same,IL-1β protein / GAPDH protein,[2]; LPS 100 ng/ml + MeCbl 100 μM,0.75
same,iNOS protein / GAPDH protein,[2]; LPS 100 ng/ml + MeCbl 100 μM,0.45
same,IL-1β protein / GAPDH protein,[2]; LPS 100 ng/ml + MeCbl 1 mM,1.26
same,iNOS protein / GAPDH protein,[2]; LPS 100 ng/ml + MeCbl 1 mM,0.53
same,iNOS level (Western blot) as compared with LPS alone,[2]; LPS + 100 nM to 10 μM methylcobalamin,significantly decreased
same,percentage of M2 macrophages (percentage of Arg1-positive cells),[3]; IL-4 20 ng/ml + MeCbl 1 nM,10.90%
same,percentage of M2 macrophages (percentage of Arg1-positive cells),[3]; IL-4 20 ng/ml + MeCbl 10 nM,18.57%
same,percentage of M2 macrophages (percentage of Arg1-positive cells),[3]; IL-4 20 ng/ml + MeCbl 100 nM,18.95%
same,percentage of M2 macrophages (percentage of Arg1-positive cells),[3]; IL-4 20 ng/ml + MeCbl 1 μM,19.32%
same,percentage of M2 macrophages (percentage of Arg1-positive cells),[3]; IL-4 20 ng/ml + MeCbl 10 μM,15.24%
same,percentage of M2 macrophages (percentage of Arg1-positive cells),[3]; IL-4 20 ng/ml + MeCbl 100 μM,10.61%
same,percentage of M2 macrophages (percentage of Arg1-positive cells),[3]; IL-4 20 ng/ml + MeCbl 1 mM,9.49%
same,proportion of cells positive for the M2 marker Arg1 as compared to IL-4 alone,[3]; IL-4 + 10 nM to 1 μM methylcobalamin,significantly increased
same,percentage of M1 macrophages (percentage of iNOS-positive cells),[3]; LPS 100 ng/ml + MeCbl 1 nM,16.64%
same,percentage of M1 macrophages (percentage of iNOS-positive cells),[3]; LPS 100 ng/ml + MeCbl 10 nM,9.57%
same,percentage of M1 macrophages (percentage of iNOS-positive cells),[3]; LPS 100 ng/ml + MeCbl 100 nM,7.26%
same,percentage of M1 macrophages (percentage of iNOS-positive cells),[3]; LPS 100 ng/ml + MeCbl 1 μM,3.42%
same,percentage of M1 macrophages (percentage of iNOS-positive cells),[3]; LPS 100 ng/ml + MeCbl 10 μM,11.45%
same,percentage of M1 macrophages (percentage of iNOS-positive cells),[3]; LPS 100 ng/ml + MeCbl 100 μM,10.34%
same,percentage of M1 macrophages (percentage of iNOS-positive cells),[3]; LPS 100 ng/ml + MeCbl 1 mM,17.57%
same,proportion of cells positive for the M1 marker iNOS as compared with LPS alone,[3]; LPS + 10 nM to 100 μM methylcobalamin,significantly decreased
same,methylcobalamin concentration at peak of switch from M1 to M2,[3]; immunofluorescent staining,around 100 nM
